Drawing on ChEMBL document CHEMBL5653615 (J Biol Chem, 2013), this text covers inhibition for two compounds.

Assay [1] has as its target T1, Serine/threonine-protein kinase D2 (Homo sapiens) (UniProt Q9BZL6).
T1 sequence (whole entry): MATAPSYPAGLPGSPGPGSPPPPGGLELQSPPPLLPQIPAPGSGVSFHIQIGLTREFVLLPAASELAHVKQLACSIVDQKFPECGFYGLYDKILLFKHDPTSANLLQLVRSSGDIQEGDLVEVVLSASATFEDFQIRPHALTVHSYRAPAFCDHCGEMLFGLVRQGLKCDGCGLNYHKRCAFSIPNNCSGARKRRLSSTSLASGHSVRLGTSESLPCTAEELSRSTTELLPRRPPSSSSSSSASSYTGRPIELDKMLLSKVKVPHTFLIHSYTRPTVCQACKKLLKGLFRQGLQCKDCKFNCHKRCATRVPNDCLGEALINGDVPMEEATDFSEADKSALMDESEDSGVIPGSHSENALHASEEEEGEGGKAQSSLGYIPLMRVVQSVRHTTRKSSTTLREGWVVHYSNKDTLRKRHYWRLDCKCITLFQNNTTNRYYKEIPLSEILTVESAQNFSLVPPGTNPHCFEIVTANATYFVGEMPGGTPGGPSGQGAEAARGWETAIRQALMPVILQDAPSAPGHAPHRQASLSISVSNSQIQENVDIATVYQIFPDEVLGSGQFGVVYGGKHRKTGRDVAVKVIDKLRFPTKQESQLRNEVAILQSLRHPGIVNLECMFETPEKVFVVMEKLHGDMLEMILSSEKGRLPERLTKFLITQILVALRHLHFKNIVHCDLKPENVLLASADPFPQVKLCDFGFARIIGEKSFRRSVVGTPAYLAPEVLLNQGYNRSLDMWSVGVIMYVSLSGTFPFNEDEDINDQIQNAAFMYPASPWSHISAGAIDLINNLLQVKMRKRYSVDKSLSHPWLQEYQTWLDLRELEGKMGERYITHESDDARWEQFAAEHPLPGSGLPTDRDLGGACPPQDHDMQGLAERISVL
Kind of assay: Inhibition of human PRKD2 at 18.6 nM by HotSpot assay relative to control.

Assay [2] concerns the target BDNF/NT-3 growth factors receptor (Homo sapiens) (UniProt Q16620). Briefly: Inhibition of human TRKB at 18.6 nM by HotSpot assay relative to control.
Assay [3] concerns the target Tyrosine-protein kinase Yes (Homo sapiens) (UniProt P07947). Kind of assay: Inhibition of human YES1 at 18.6 nM by HotSpot assay relative to control.
The target in assay [4] is Serine/threonine-protein kinase OSR1 (Homo sapiens) (UniProt O95747). Kind of assay: Inhibition of human OXSR1 at 18.6 nM by HotSpot assay relative to control.
Assay [5] concerns the target T2, Dual specificity tyrosine-phosphorylation-regulated kinase 4 (Homo sapiens) (UniProt Q9NR20).
T2 sequence (whole entry): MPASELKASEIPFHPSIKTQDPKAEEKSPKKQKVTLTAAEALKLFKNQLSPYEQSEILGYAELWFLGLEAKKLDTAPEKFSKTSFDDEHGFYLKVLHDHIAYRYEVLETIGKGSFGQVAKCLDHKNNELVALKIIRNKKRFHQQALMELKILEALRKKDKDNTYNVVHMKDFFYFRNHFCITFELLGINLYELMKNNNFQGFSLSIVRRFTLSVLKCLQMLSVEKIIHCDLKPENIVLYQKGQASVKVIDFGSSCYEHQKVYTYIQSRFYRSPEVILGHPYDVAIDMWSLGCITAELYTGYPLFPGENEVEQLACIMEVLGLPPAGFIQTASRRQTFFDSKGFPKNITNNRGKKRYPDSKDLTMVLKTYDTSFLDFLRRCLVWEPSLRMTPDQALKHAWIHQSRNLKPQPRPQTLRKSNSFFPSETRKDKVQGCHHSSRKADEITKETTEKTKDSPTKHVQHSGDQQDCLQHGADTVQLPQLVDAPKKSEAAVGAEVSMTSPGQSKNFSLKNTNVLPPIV
Briefly: Inhibition of human DYRK4 at 1.82 nM by HotSpot assay relative to control.

Assay [6] addresses Protein kinase C beta type (Homo sapiens) (UniProt P05771). Kind of assay: Inhibition of human PKCb1 at 1.82 nM by HotSpot assay relative to control.
Assay [7] deals with T3, Ephrin type-A receptor 1 (Homo sapiens) (UniProt P21709).
T3 sequence (whole entry): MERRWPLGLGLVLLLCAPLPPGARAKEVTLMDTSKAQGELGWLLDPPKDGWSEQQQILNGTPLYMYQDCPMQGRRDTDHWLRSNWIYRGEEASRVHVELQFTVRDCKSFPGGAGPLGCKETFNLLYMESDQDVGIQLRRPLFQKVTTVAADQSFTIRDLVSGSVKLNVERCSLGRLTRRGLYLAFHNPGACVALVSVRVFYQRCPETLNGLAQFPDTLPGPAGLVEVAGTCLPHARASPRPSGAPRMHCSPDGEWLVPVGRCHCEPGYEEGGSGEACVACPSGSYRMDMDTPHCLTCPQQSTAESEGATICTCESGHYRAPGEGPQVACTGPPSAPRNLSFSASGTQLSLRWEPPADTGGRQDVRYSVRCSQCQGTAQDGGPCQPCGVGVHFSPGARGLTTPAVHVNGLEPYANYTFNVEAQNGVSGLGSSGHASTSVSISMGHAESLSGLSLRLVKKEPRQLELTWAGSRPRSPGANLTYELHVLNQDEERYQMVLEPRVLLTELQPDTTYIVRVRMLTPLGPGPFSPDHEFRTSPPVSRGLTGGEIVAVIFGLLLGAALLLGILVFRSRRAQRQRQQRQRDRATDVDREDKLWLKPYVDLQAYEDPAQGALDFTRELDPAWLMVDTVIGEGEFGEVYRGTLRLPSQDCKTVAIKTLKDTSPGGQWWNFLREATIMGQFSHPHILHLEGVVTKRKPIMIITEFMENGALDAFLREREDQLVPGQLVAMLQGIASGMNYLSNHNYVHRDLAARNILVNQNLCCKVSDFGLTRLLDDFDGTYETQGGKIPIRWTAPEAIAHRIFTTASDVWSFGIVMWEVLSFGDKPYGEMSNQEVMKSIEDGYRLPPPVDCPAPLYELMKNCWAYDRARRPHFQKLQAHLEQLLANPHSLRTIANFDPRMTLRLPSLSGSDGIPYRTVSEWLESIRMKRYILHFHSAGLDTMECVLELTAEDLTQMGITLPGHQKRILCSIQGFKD
Kind of assay: Inhibition of human EPHA1 at 1.82 nM by HotSpot assay relative to control.

SMILES strings stand for the structures.

One may read the inhibition as the relative decrease from the control value, in per cent.

Serine/threonine-protein kinase OSR1 (Homo sapiens), sequence (O95747 whole entry, looked up): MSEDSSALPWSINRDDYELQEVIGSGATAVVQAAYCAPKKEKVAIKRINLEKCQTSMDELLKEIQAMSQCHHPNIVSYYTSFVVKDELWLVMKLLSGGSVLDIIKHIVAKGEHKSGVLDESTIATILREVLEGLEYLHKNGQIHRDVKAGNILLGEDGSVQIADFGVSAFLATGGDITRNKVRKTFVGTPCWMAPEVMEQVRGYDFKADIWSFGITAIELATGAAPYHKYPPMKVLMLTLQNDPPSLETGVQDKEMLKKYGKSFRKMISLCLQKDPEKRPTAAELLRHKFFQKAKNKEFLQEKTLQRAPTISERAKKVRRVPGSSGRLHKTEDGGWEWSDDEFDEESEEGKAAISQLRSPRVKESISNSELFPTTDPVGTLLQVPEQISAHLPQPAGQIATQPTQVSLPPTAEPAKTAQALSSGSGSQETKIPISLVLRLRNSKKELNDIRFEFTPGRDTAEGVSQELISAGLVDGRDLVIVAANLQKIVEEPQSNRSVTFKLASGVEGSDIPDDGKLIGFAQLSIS
Tyrosine-protein kinase Yes (Homo sapiens), sequence (P07947 2-543 limits assumed): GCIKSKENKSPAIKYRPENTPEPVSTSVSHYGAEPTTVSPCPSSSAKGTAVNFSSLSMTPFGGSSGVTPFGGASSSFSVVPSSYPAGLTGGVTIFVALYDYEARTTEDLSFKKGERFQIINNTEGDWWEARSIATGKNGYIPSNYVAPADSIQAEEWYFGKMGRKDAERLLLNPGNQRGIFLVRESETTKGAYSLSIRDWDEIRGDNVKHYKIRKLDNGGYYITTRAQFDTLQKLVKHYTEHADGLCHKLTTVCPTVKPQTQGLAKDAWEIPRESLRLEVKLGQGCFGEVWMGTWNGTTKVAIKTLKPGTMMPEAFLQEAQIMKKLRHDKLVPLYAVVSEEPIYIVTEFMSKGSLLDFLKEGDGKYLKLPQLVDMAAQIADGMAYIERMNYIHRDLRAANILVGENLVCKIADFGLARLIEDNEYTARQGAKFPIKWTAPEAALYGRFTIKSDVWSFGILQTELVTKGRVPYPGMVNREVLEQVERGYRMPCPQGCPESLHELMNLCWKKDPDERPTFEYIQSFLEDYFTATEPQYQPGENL
Protein kinase C beta type (Homo sapiens), sequence (P05771 2-671 limits assumed): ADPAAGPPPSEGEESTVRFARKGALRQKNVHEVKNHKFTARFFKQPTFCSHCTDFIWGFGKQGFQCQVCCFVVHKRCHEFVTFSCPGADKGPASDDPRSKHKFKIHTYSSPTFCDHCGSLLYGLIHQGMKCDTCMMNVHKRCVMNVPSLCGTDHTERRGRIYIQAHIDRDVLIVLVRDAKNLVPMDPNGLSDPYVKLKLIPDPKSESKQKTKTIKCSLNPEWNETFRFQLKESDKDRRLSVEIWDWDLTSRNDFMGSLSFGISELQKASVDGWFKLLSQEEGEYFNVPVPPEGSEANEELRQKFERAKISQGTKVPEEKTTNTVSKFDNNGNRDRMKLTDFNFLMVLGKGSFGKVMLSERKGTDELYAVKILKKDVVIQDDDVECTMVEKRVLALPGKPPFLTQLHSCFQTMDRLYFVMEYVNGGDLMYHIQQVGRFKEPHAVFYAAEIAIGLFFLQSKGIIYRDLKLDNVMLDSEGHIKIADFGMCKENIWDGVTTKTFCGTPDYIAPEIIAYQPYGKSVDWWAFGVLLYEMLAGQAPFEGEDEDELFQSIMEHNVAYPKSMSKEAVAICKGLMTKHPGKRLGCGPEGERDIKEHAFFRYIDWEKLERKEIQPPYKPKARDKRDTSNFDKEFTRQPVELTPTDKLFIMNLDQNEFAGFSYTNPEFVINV
BDNF/NT-3 growth factors receptor (Homo sapiens), sequence (Q16620 32-822 limits assumed): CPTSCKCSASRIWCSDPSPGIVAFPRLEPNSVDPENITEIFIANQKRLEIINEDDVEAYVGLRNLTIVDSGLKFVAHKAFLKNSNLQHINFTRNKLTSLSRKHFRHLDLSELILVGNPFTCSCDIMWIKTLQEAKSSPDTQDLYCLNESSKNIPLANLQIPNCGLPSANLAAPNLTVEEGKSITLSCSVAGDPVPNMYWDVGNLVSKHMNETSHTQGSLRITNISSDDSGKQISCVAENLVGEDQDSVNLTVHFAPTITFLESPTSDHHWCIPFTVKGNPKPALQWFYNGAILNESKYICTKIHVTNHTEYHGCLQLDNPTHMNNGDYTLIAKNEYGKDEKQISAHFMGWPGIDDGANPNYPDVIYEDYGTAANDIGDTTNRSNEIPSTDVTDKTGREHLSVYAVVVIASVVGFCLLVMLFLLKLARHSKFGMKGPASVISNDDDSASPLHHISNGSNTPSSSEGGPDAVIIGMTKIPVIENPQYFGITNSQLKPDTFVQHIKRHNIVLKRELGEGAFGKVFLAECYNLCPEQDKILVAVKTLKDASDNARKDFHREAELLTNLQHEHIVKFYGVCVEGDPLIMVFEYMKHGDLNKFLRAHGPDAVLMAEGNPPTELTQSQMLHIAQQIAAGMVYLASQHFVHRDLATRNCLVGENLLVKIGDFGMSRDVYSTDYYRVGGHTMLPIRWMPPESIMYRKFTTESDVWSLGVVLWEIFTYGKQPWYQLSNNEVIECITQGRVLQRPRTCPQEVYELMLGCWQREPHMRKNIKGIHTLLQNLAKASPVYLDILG

Take `C[C@]1(O)C[C@@H](c2nc(-c3ccc4ccc(-c5ccccc5)nc4c3)c3c(N)nccn32)C1`: the inhibition in assay [1] is 7.59%; in assay [2], -7.44%; in assay [3], 4.32%; in assay [4], -6.49%.
Regarding `C[C@@]1(C(=O)Nc2ccc(F)nc2)CCCN1c1nc(Nc2cc(C3CC3)n[nH]2)c2cccn2n1`, the values for the inhibition in assay [5], in assay [6] and in assay [7] were -0.4%, -8.94% and -4.67%, respectively.
